These results are taken from patent US11040031B2, “Pyrazole derivatives as MALT1 inhibitors” (Janssen Pharmaceutica NV, priority 2018, dated 2021).

The first experiment deals with Secretion of IL10 by OCI-LY3 ABC-DLBCL cells. The experiment can be described thus: Human IL10 Mesoscale assay (OCI-LY3). It counts as cell-based. As to conditions: OCI-LY3 cells, 24 h incubation, supernatant, MSD V-Plex, read-out: Human IL10 Mesoscale assay (OCI-LY3). As for the experimental part: NFKB signaling regulates the secretion of multiple cytokines, including IL6 and IL10. Secretion of the cytokines IL6 and IL10 by TMD8 or OCI-LY3 ABC-DLBCL cells was measured using a mesoscale assay.
Cell passage number should not exceed 30. Cells should be kept between 0.5-2.5 million cells per mL during culturing and cells should be supplemented every 2-3 days with fresh 50 µM beta-mercaptoenthanol. No beta-mercaptoethanol was used during the mesoscale assay.
DMSO control wells were used to determine the maximum signal (High Control (HC)). […] Compounds and cells were incubated for 24 h at 37° C. and 5% CO2 (assay volume is 150 μL). After 24 h of incubation 50 μL of the supernatant was transferred to a MSD plate (V-Plex Proinflammation Panel 1 (human) kit, Mesoscale (MSD)) and incubated for 2 h with vigorous shaking (600 rpm) at room temperature. Following incubation, plates were washed 3× with PBS+0.05% Tween-20 and 25 μL detection antibody solution (IL6 & IL10 antibodies in diluent 3 (MSD)) was added per well followed by 2 h of incubation with vigorous shaking (600 rpm) at room temperature. After 3× washes with PBS+0.05% Tween-20, plates were incubated with 150 μL 2× Read Buffer T and read on SECTOR imager.
For the compound `Cc1c(-n2ncc(C(=O)Nc3cnc(-n4nccn4)c(Cl)c3)c2C(F)(F)F)ccc(F)c1F` [Cpd 174, N-(5-chloro-6-(2H-1,2,3-triazol-2-yl)pyridin-3-yl)-1-(3,4-difluoro-2-methylphenyl)-5-(trifluoromethyl)-1H-pyrazole-4-carboxamide], the IC50 was found to be 83 nM.

The target of a further experiment is T1, full-length MALT1 protein (Strep-MALT1(1-824)-His) (Homo sapiens, UniProt Q9UDY8).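 Further: fluorogenic LRSR-AMC substrate cleavage by MALT1, 50 min compound preincubation then 4 h reaction at RT, 11-point dilution from 30 µM, scaled between enzyme-free and untreated enzyme controls.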
T1 sequence (Q9UDY8 1-824): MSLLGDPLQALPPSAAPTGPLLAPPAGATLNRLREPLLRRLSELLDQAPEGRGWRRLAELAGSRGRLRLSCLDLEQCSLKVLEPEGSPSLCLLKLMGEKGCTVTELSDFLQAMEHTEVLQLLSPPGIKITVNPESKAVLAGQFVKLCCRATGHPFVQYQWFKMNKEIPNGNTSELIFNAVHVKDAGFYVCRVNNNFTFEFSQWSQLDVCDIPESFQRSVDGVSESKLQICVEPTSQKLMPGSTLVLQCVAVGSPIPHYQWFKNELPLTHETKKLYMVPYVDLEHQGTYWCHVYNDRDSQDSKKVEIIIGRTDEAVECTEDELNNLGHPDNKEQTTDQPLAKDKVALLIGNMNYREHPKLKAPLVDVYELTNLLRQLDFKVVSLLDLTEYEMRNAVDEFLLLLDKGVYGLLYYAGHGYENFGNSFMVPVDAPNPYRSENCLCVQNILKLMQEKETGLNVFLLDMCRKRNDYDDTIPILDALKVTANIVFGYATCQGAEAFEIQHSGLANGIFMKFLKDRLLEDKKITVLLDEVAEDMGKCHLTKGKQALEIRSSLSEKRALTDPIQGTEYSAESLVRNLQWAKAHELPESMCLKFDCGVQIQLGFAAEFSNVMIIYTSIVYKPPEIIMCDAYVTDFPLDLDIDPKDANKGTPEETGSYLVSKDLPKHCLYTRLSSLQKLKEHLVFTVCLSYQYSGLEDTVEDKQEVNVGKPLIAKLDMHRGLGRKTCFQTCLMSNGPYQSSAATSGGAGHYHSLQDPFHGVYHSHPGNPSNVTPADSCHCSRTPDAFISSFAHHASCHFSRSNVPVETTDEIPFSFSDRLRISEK
The experiment can be described thus: biochemical.
Conditions: not given
`O=C(Nc1cnc(-n2nccn2)c(Cl)c1)c1cnn(-c2nc(Cl)ccc2Cl)c1C(F)(F)F` [Cpd 163, N-(5-chloro-6-(2H-1,2,3-triazol-2-yl)pyridin-3-yl)-1-(3,6-dichloropyridin-2-yl)-5-(trifluoromethyl)-1H-pyrazole-4-carboxamide]: the IC50 stood at 794 nM.

`N#Cc1cc(NC(=O)c2cnn(-c3nc(Cl)ccc3C(F)(F)F)c2C(F)(F)F)cnc1-n1nccn1` [Cpd 164, 1-(6-chloro-3-(trifluoromethyl)pyridin-2-yl)-N-(5-cyano-6-(2H-1,2,3-triazol-2-yl)pyridin-3-yl)-5-(trifluoromethyl)-1H-pyrazole-4-carboxamide] yielded an IC50 of 1410 nM.

The compound `O=C(Nc1cnc(-n2nccn2)c(Cl)c1)c1cnn(-c2nc(Cl)ccc2C(F)(F)F)c1C(F)(F)F` [Cpd 165, 1-(6-chloro-3-(trifluoromethyl)pyridin-2-yl)-N-(5-chloro-6-(2H-1,2,3-triazol-2-yl)pyridin-3-yl)-5-(trifluoromethyl)-1H-pyrazole-4-carboxamide] gave an IC50 of 2290 nM.

With `Cc1c(-n2ncc(C(=O)Nc3cnc(-n4nccn4)c(Cl)c3)c2C(F)(F)F)ccc(F)c1F` [Cpd 174, N-(5-chloro-6-(2H-1,2,3-triazol-2-yl)pyridin-3-yl)-1-(3,4-difluoro-2-methylphenyl)-5-(trifluoromethyl)-1H-pyrazole-4-carboxamide], the IC50 was found to be 170 nM.

For the compound `Cc1nc(-n2nccn2)c(Cl)cc1NC(=O)c1cnn(-c2ccc(C#N)c(N)n2)c1C(F)(F)F` [Cpd 178, 1-(6-amino-5-cyanopyridin-2-yl)-N-(5-chloro-2-methyl-6-(2H-1,2,3-triazol-2-yl)pyridin-3-yl)-5-(trifluoromethyl)-1H-pyrazole-4-carboxamide], the IC50 turned out to be 200 nM.

As to `Cc1ccc(-n2ncc(C(=O)Nc3cnc(-n4nccn4)c(Cl)c3)c2C(F)(F)F)nc1N` [Cpd 184, 1-(6-amino-5-methylpyridin-2-yl)-N-(5-chloro-6-(2H-1,2,3-triazol-2-yl)pyridin-3-yl)-5-(trifluoromethyl)-1H-pyrazole-4-carboxamide], the IC50 is 331 nM.

The compound `Cc1cc(F)c(N)nc1-n1ncc(C(=O)Nc2cc(C#N)c(-n3nccn3)nc2C)c1C(F)(F)F` [Cpd 186, 1-(6-amino-5-fluoro-3-methylpyridin-2-yl)-N-(5-cyano-2-methyl-6-(2H-1,2,3-triazol-2-yl)pyridin-3-yl)-5-(trifluoromethyl)-1H-pyrazole-4-carboxamide] gave an IC50 of 339 nM.

As for `N#Cc1cc(NC(=O)c2cnn(-c3nc(N)ccc3C(F)(F)F)c2C(F)(F)F)cnc1-n1nccn1` [Cpd 187, 1-(6-amino-3-(trifluoromethyl)pyridin-2-yl)-N-(5-cyano-6-(2H-1,2,3-triazol-2-yl)pyridin-3-yl)-5-(trifluoromethyl)-1H-pyrazole-4-carboxamide], the IC50 came to 380 nM.

`Cc1cc(F)c(N)nc1-n1ncc(C(=O)Nc2cc(Cl)c(-n3nccn3)nc2C)c1C(F)(F)F` [Cpd 188, 1-(6-amino-5-fluoro-3-methylpyridin-2-yl)-N-(5-chloro-2-methyl-6-(2H-1,2,3-triazol-2-yl)pyridin-3-yl)-5-(trifluoromethyl)-1H-pyrazole-4-carboxamide] came in with an IC50 of 380 nM.

Regarding `CNc1cccc(-n2ncc(C(=O)Nc3cnc(-n4nccn4)c(C#N)c3)c2C(F)(F)F)n1` [Cpd 189, N-(5-cyano-6-(2H-1,2,3-triazol-2-yl)pyridin-3-yl)-1-(6-(methylamino)pyridin-2-yl)-5-(trifluoromethyl)-1H-pyrazole-4-carboxamide], the IC50 stood at 437 nM.

In the case of `Cc1cc(N)ncc1-n1ncc(C(=O)Nc2cnc(-n3nccn3)c(C#N)c2)c1C(F)(F)F` [Cpd 190, 1-(6-amino-4-methylpyridin-3-yl)-N-(5-cyano-6-(2H-1,2,3-triazol-2-yl)pyridin-3-yl)-5-(trifluoromethyl)-1H-pyrazole-4-carboxamide], the IC50 is 447 nM.

As to `Cc1cc(N)ncc1-n1ncc(C(=O)Nc2cnc(-n3nccn3)c(Cl)c2)c1C(F)(F)F` [Cpd 191, 1-(6-amino-4-methylpyridin-3-yl)-N-(5-chloro-6-(2H-1,2,3-triazol-2-yl)pyridin-3-yl)-5-(trifluoromethyl)-1H-pyrazole-4-carboxamide], the IC50 came to 724 nM.

With `Nc1ccc(C(F)(F)F)c(-n2ncc(C(=O)Nc3cnc(-n4nccn4)c(Cl)c3)c2C(F)(F)F)n1` [Cpd 192, 1-(6-amino-3-(trifluoromethyl)pyridin-2-yl)-N-(5-chloro-6-(2H-1,2,3-triazol-2-yl)pyridin-3-yl)-5-(trifluoromethyl)-1H-pyrazole-4-carboxamide], the IC50 turned out to be 1120 nM.

`N#Cc1cc(NC(=O)c2cnn(-c3ccc(N)nc3)c2C(F)(F)F)cnc1-n1nccn1` [Cpd 194, 1-(6-aminopyridin-3-yl)-N-(5-cyano-6-(2H-1,2,3-triazol-2-yl)pyridin-3-yl)-5-(trifluoromethyl)-1H-pyrazole-4-carboxamide] displayed an IC50 of 1170 nM.

On to `Cc1nc(N)ccc1-n1ncc(C(=O)Nc2cnc(-n3nccn3)c(C#N)c2)c1C(F)(F)F` [Cpd 196, 1-(6-amino-2-methylpyridin-3-yl)-N-(5-cyano-6-(2H-1,2,3-triazol-2-yl)pyridin-3-yl)-5-(trifluoromethyl)-1H-pyrazole-4-carboxamide], for which the IC50 stood at 1320 nM.

Regarding `Cc1ccc(-n2ncc(C(=O)Nc3cc(C#N)c(-n4nccn4)nc3C)c2C(F)(F)F)nc1N` [Cpd 197, 1-(6-amino-5-methylpyridin-2-yl)-N-(5-cyano-2-methyl-6-(2H-1,2,3-triazol-2-yl)pyridin-3-yl)-5-(trifluoromethyl)-1H-pyrazole-4-carboxamide], the IC50 is 2510 nM.

On to `Cc1nc(-n2nccn2)c(Cl)cc1NC(=O)c1cnn(-c2ccc(C(N)=O)c(N)n2)c1C(F)(F)F` [Cpd 198, 2-amino-6-(4-((5-chloro-2-methyl-6-(2H-1,2,3-triazol-2-yl)pyridin-3-yl)carbamoyl)-5-(trifluoromethyl)-1H-pyrazol-1-yl)nicotinamide], for which the IC50 is 3720 nM.

Regarding `Cc1c(-n2ncc(C(=O)Nc3cnc(-n4nccn4)c(Cl)c3)c2C(F)(F)F)ccnc1N` [Cpd 199, 1-(2-amino-3-methylpyridin-4-yl)-N-(5-chloro-6-(2H-1,2,3-triazol-2-yl)pyridin-3-yl)-5-(trifluoromethyl)-1H-pyrazole-4-carboxamide], the IC50 came out at 174 nM.

`Cc1nc(C#N)ccc1-n1ncc(C(=O)Nc2cnc(-n3nccn3)c(Cl)c2)c1C(F)(F)F` [Cpd 201, N-(5-chloro-6-(2H-1,2,3-triazol-2-yl)pyridin-3-yl)-1-(6-cyano-2-methylpyridin-3-yl)-5-(trifluoromethyl)-1H-pyrazole-4-carboxamide]: the IC50 is 138 nM.

Regarding `O=C(Nc1cnc(-n2nccn2)c(Cl)c1)c1cnn(-c2cccc(Br)n2)c1C(F)(F)F` [Cpd 202, 1-(6-bromopyridin-2-yl)-N-(5-chloro-6-(2H-1,2,3-triazol-2-yl)pyridin-3-yl)-5-(trifluoromethyl)-1H-pyrazole-4-carboxamide], the IC50 came out at 741 nM.

On to `O=C(Nc1cnc(-n2nccn2)c(Cl)c1)c1cnn(-c2cccc(-c3ccco3)n2)c1C(F)(F)F` [Cpd 207, N-(5-chloro-6-(2H-1,2,3-triazol-2-yl)pyridin-3-yl)-1-(6-(furan-2-yl)pyridin-2-yl)-5-(trifluoromethyl)-1H-pyrazole-4-carboxamide], for which the IC50 is 5620 nM.

In turn, `O=C(Nc1cnc(-n2nccn2)c(Cl)c1)c1cnn(-c2cccc(C3=COCCO3)n2)c1C(F)(F)F` [Cpd 208, N-(5-chloro-6-(2H-1,2,3-triazol-2-yl)pyridin-3-yl)-1-(6-(5,6-dihydro-1,4-dioxin-2-yl)pyridin-2-yl)-5-(trifluoromethyl)-1H-pyrazole-4-carboxamide] had an IC50 of 5130 nM.
